Where no end group is shown, it is not given here. PtCP = not defined here
Key:
Format in all cases: cell-based
Jurkat T cells = assay: Lifetime of cell-surface-bound WGA-PtCP probe on Victor2 time resolved reader; conditions: Jurkat cells loaded with WGA-PtCP probe; 1 μM; basal 25 μs
Procedure: Wheat germ agglutinin (WGA) at 1 mg/ml concentration in 0.1 M Na carbonate, pH 8.6 was labelled with the PtCP-NCS dye using a 20-molar excess of dye. After two hours of incubation at room temperature, the resulting conjugate was separated from the free dye as described in example 1 above. Jurkat T cells and human B cells were incubated with WGA-PtCP probe at 1 μM concentration for 30 min at 37° C. in RPMI medium, to achieve binding of the probe to glycoproteins on cell surface. After washing of loaded cells with medium, local oxygen concentration (at cell surface and within the cell) was assessed. and responses to effectors of respiration such as 1 μM FCCP were measured. Lifetimes of the cells loaded with WGA-PtCP probe was measured on a time resolved fluorescent reader Victor^2, using excitation at 340 nm excitation and 642 nm emission filters, and pairwise intensity readings at delay times 30 and 70 μs (at gate time 100 μs). Basal lifetime of resting Jurkat cells was recorded as 25 μs, moving to 32 μs upon the addition of FCCP (uncoupler of respiration). Under the same conditions, using the PtCP-BSA conjugate which had no ability to bind to the cells and remained in extracellular medium, intracellular oxygen gradients and responses to effectors were undetectable.

A549 cells = assay: Intracellular oxygen imaging of loaded cells treated with effector compounds
Procedure: (§1) Loading of the cells with the PtCPK-BSA and PdCPK-BSA based probes (as described in Example 2) was carried out in the same way as described in Example 3 for the PtCP-BSA probes (i.e. 5 h in serum-free medium for the Escort or 24 h in serum-rich medium for Endoporter). A549 and HeLa cells loaded with PtCPK-BSA and PdCPK-BSA probes were then washed and analyzed by fluorescence microscopy. Imaging experiments of cells loaded with the probes were carried out on an Olympus IX51 inverted fluorescence microscope equipped with 75 W Xenon Arc Lamp (Cairn), an Optoscan Monochromator (Cairn) and an Orca-ER CCD camera (Hamamatsu). Live cell imaging was carried out using an Olympus UplanFl 1.3 NA 100× oil-immersion objective. The images were analysed using Kinetic Imaging AQM Advanced software (Version 6). The PtCPK and PdCPK probes were imaged under excitation at wavelengths of 395 nm and 400 nm respectively collecting the phosphorescence emission using a 600 nm cut-off filter.
(§2) Adherent A549, HeLa and SH-SY5Y cells were grown under normal conditions. Cells were loaded with probes based on PtCPK-BSA and PdCPK-BSA and Escort III (described in Example 2), and treated with various effector compounds with known mechanisms of action on cell metabolism and cellular response to the effector compounds was observed under a fluorescent microscope.
The effect of Ca-channel agonist ryanodine (20 nM) on SH-SY5Y cells, with up-regulation of cell metabolism by inducing a release of Ca2+ from intracellular stores, is shown in FIG. 4. […] An approximately 40% drop in PtCPK phosphorescence was observed as the base rate of respiration was inhibited resulting in higher levels of intracellular oxygen emanating from O2 influx from the extracellular medium.
The specificity of the CMC response was confirmed by incubating A549 cells with an equimolar concentration of the ryanodine channel blocker procaine followed by CMC treatment. In this case, phosphorescence intensity increased by less than 10% after the introduction of CMC.

PC12 cells = assay: Mitochondria-targeted probes in loaded cells on the Victor reader
Procedure: The PtCP-BSA conjugate, synthesized as described in Example 1 was additionally labelled with a synthetic oligopeptide containing the following sequence: […]. The peptide comprises a mitochondria targeting sequence (according to http://psort.ims.u-tokyo.ac.jp), a terminal cysteine group was used for the conjugation. Labelling with the peptide was achieved by means of a heterobifunctional reagent—succinimide ester of maleimidopropionic acid. The PtCP-BSA conjugate was incubated with 10-molar excess of the reagent in 0.1 M phosphate buffer, pH 7.8 for 4 hours at room temperature, then separated on a PD-10 column in the same buffer. The peak of activated PtCP-BSA was collected, mixed with 10-molar excess of the peptide, incubated for further 6 hours. Finally, the PtCP-BSA-peptide conjugate was separated on a PD-10 column.
Alternatively, the peptide was conjugated directly to PtCP. The monofunctional maleimide derivative of PtCP was used, which reacts spontaneously with —SH groups on the peptide (terminal cysteins) to form stable covalent linkage. […]
Probes incorporating the PtCP-BSA-peptide and PtCP-peptide conjugates (successful labelling was confirmed by MALDI mass spectrometry) were formulated with Endoporter agent and used for cell loading as described in Examples 3 to 8. PC12 cells loaded with these probes produced high signals on the Victor reader.

Jurkat T-cells = assay: Phosphorescence lifetime of PtCP-BSA probe in Jurkat cells on a fluorescent lifetime spectrometer; conditions: for change in intracellular probe phosphorescence lifetime after effector: Jurkat cells loaded with PtCP-BSA-Escort III probe, 1 μM, three minute intervals
Procedure: Jurkat T-cells were grown in RPMI medium supplemented with 10% FBS, 2 mM L-glutamine, 100 U/ml penicillin and 100 μg/ml streptomycin.
For loading, the PtCP-BSA based probe comprising PtCP-BSA conjugate formulated with Escort III (described in Example 1) was used. Probe solution was pre-warmed by incubating at 37° C for 15 min followed by addition of 100 μl of the probe solution to the cell culture dish containing 800 μl of serum free medium. The cells and probe solution were incubated for 5 hours in a 5% CO2 incubator at 37° C., cells were then washed with 1 ml of serum free medium three times.
Loading of the cells loaded with the PtCP-based probe(s) was initially assessed by measurement on a fluorescent lifetime spectrometer Cary Eclipse (Varian), both in the intracellular environment (i.e. after loading and washing of the cells) and in the extracellular medium (at the start of loading, no washing). […] The inhibitor blocks oxygen consumption and adjusts intracellular oxygen levels to air-saturated levels.
Jurkat T-cell lymphoma cells were grown under normal conditions and loaded with the PtCP-BSA-Escort III based probe (as described in Example 1) using the method described in Example 3. Following washing the basal level of intracellular oxygen was assessed by measuring the phosphorescence lifetime of the PtCP probe using a Cary Eclipse spectrofluorometer and analyzing phosphorescence decays using Origin™ software (single-exponential fits). Phosphorescence lifetimes of the intracellular probe in loaded cells were measured at three minute intervals following the addition of 1 μM valinomycin.

HeLa cells = assay: Intracellular oxygen imaging of loaded cells treated with valinomycin; conditions: HeLa cells loaded with PtCPK-BSA or PdCPK-BSA; 1 μM
Procedure: as §1
as §2, with “microscope. […]” for “microscope.”

With N#CC(C#N)=NNc1ccc(OC(F)(F)F)cc1 [FCCP] the “lifetime upon addition of uncoupler” value (Jurkat T cells) was 32 μs.

With ryanodine the “response of loaded cells, lower concentrations” value (A549 cells; A549 cells loaded with PtCPK, 2 nM and 20 nM) was “increased phosphorescence” and the “response of loaded cells, higher concentrations” value (A549 cells; A549 cells loaded with PtCPK, 200 nM and 2 μM) was “little oxygen uptake”.

With “PtCP-peptide: PtCP-maleimide conjugated directly to peptide VLTPLLLRGLTGSARRLPVPRAKAC (VLTPLLLRGLTGSARRLPVPRAKAC(PtCP); reading uncertain)” the “signals of loaded cells on the Victor reader” value (PC12 cells; formulated with Endoporter) was “high signals” and the “phosphorescence lifetimes of resting loaded cells compared with PtCP-BSA probe” value (PC12 cells; resting) was “higher”.

In the case of CC(C)[C@@H]1NC(=O)[C@H](C)OC(=O)[C@@H](C(C)C)NC(=O)[C@@H](C(C)C)OC(=O)[C@H](C(C)C)NC(=O)[C@H](C)OC(=O)[C@@H](C(C)C)NC(=O)[C@@H](C(C)C)OC(=O)[C@H](C(C)C)NC(=O)[C@H](C)OC(=O)[C@@H](C(C)C)NC(=O)[C@@H](C(C)C)OC1=O [valinomycin], the “phosphorescence response to effector” value (A549 cells; A549 cells loaded with PtCPK-BSA or PdCPK-BSA, 1 μM) is reported as “rapid and cell specific”, the “change in intracellular probe phosphorescence lifetime after effector” value (Jurkat T-cells) is reported as “increase in probe lifetime was significantly faster than in a control sample” and the “phosphorescence response to effector” value (HeLa cells) is reported as “rapid and cell specific”.

Cc1cc(O)ccc1Cl [CMC, 4-chloro-meta-cresol] was tested, and the “increase of phosphorescence intensity” value (A549 cells; A549 cells pre-incubated with equimolar procaine, then 500 μM CMC) was “less than 10%” and the “effect on the phosphorescence” value (A549 cells; respiring A549 cells loaded with PtCPK-BSA, 500 μM) was “pronounced effect”.

antimycin A was tested, and the “drop in PtCPK phosphorescence” value (A549 cells; A549 cells loaded with PtCPK-BSA/Escort III, 2 μM) was “approximately 40%”, the “probe lifetime after addition of inhibitor” value (Jurkat T-cells; Jurkat cells loaded with PtCP-BSA probe, basal 31 μs, lifetime decreases and levels off) was roughly 25 μs and the “change in intracellular probe phosphorescence lifetime after effector” value (Jurkat T-cells) was “slight drop”.

From patent publication US20080051646A1, “Probe for cellular oxygen” (priority 2006, published 2008)
